Measurements from ChEMBL document CHEMBL4418284, “Hypdh inhibitors and methods of use for the treatment of kidney stones” (2018).

Target: T1, Hydroxyproline dehydrogenase (Homo sapiens, UniProt Q9UF12)
T1 sequence (Q9UF12 whole entry): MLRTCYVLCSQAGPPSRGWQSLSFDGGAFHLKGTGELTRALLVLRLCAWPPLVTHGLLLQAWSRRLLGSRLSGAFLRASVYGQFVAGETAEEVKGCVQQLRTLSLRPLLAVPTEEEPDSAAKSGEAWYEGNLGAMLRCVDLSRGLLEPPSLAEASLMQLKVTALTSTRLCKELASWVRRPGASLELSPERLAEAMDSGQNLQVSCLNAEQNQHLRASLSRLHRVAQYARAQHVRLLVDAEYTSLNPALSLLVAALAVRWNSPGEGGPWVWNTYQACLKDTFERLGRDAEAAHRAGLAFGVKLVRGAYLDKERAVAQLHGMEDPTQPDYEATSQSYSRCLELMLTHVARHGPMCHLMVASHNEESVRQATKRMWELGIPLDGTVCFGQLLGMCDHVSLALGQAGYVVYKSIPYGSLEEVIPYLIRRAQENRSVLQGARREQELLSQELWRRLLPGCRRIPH
Experiment: Inhibition of human recombinant HYPDH expressed in Escherichia coli using hydroxyproline as substrate preincubated for 5 mins followed by substrate addition in presence of FAD as cofactor

**Q.** With `O=C(O)c1ccco1` as the compound, how does the IC50 read?
**A.** Nd(Insoluble)
